Experimental data as given in patent publication US20240317735A1, “HYDROISOQUINOLINE OR HYDRONAPHTHYRIDINE COMPOUNDS FOR THE TREATMENT OF AUTOIMMUNE DISEASE” (Hoffmann-La Roche Inc., priority 2020, published 2024).

Target: T1, TLR9 (Homo sapiens, UniProt Q9NR96)
T1 sequence (Q9NR96 26-1032): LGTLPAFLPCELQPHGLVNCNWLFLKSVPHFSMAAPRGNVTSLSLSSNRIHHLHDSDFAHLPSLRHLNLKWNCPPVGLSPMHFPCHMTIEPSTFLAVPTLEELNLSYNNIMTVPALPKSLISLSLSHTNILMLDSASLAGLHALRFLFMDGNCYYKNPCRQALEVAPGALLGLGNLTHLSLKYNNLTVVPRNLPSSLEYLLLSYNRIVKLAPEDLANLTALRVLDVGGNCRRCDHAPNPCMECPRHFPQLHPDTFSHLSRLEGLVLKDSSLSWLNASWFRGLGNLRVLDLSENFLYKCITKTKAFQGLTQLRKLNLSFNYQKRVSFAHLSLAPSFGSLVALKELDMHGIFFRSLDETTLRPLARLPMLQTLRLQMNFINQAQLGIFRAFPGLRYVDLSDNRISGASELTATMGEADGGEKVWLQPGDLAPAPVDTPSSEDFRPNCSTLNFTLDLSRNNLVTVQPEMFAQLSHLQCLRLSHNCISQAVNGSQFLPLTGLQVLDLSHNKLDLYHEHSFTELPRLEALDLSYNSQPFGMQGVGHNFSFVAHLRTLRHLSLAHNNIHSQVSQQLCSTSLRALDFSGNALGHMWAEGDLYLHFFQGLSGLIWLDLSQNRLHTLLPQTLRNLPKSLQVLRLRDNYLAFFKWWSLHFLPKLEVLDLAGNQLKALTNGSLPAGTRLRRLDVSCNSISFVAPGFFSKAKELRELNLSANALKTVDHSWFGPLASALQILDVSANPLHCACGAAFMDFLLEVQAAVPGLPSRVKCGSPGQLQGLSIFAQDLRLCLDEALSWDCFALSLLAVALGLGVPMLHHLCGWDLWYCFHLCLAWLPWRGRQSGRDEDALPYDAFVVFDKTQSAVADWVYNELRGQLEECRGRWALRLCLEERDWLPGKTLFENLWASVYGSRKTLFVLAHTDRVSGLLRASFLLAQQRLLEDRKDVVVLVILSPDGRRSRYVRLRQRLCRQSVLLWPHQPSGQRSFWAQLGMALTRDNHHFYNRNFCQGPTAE
Experiment: HEK293-Blue-hTLR-9 cells assay (SEAP reporter, ODN2006 stimulation)
Assay type: cell-based
Parameters: host or cells: HEK293 (HEK-Blue hTLR9)
Conditions: HEK293-Blue-hTLR9 cells, ODN2006, 20 hrs; read-out: HEK/hTLR9 IC50
Procedure, shortened: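 Antagonist format: cells in DMEM/10% FBS exposed to serially diluted compound (1% DMSO) plus ODN2006 stimulation for 20 h at 37°C. Supernatant SEAP measured with QUANTI-Blue substrate, 2 h at 37°C, absorbance 620–655 nm.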

SMILES	IC50 [nM]
C[C@H]1CN(c2ccnc3c2cnn3C)Cc2ccc(N3CCN(C(=O)C4CCCN4)CC3)cc21 (stereo partly drawn) [Example 8, pyrrolidin-2-yl-[4-[(4R)-4-methyl-2-(1-methylpyrazolo[3,4-b]pyridin-4-yl)-3,4-dihydro-1H-isoquinolin-6-yl]piperazin-1-yl]methanone]	140
C[C@H]1CN(c2ccnc3c2cnn3C)Cc2ccc(N3CCN(C(=O)C4CCNCC4)CC3)cc21 [Example 7, 4-piperidyl-[4-[(4R)-4-methyl-2-(1-methylpyrazolo[3,4-b]pyridin-4-yl)-3,4-dihydro-1H-isoquinolin-6-yl]piperazin-1-yl]methanone]	104

Results, then the molecule that gave them:

IC50 [nM]	SMILES
360	C[C@H]1CN(c2ccnc3c2cnn3C)Cc2ccc(N3C[C@@H](N)[C@H](O)C3)cc21 [Example 46, trans-4-amino-1-[(4R)-4-methyl-2-(1-methylpyrazolo[3,4-b]pyridin-4-yl)-3,4-dihydro-1H-isoquinolin-6-yl]pyrrolidin-3-ol]
399	C[C@H]1CN(c2ccnc3c2cnn3C)Cc2ccc(N3CCC(O)(CN(C)C)CC3)cc21 [Example 13, 4-[(dimethylamino)methyl]-1-[(4R)-4-methyl-2-(1-methylpyrazolo[3,4-b]pyridin-4-yl)-3,4-dihydro-1H-isoquinolin-6-yl]piperidin-4-ol]
104	Cc1cc(N2Cc3ccc(N4CCC(N(C)C)CC4)nc3[C@@H](C)C2)c2cnn(C)c2n1 [Example 60, N,N-dimethyl-1-[(8S)-6-(1,6-dimethylpyrazolo[3,4-b]pyridin-4-yl)-8-methyl-7,8-dihydro-5H-1,6-naphthyridin-2-yl]piperidin-4-amine]
129	Cc1cc(N2Cc3ccc(N4CCC(O)(CN(C)C)CC4)nc3[C@@H](C)C2)c2cnn(C)c2n1 [Example 61, 4-[(dimethylamino)methyl]-1-[(8S)-6-(1,6-dimethylpyrazolo[3,4-b]pyridin-4-yl)-8-methyl-7,8-dihydro-5H-1,6-naphthyridin-2-yl]piperidin-4-ol]
